# Test results from patent publication US10670605B2, “Cysteine reactive probes and uses thereof” (The Scripps Research Institute, priority 2015, dated 2020).
# Experiments:
# Experiment in all cases: Competitive isoTOP-ABPP in situ (fragment-treated cells)
# Type in all cases: cell-based
# [1] = target: T1, cysteines in MDA-MB-231 and Ramos cells (Homo sapiens, UniProt Q5T440)
# T1 sequence (Q5T440 40-356): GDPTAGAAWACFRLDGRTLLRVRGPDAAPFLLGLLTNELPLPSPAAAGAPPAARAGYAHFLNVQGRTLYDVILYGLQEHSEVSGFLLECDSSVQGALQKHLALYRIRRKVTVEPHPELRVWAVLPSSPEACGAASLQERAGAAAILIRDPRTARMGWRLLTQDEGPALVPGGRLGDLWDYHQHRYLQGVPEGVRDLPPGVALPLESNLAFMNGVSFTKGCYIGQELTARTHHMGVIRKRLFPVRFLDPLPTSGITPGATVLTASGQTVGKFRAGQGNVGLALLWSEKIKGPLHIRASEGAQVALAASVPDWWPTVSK
# [2] = target: T2, cysteines in MDA-MB-231 and Ramos cells (Homo sapiens, UniProt Q2NL82)
# T2 sequence (Q2NL82 1-804): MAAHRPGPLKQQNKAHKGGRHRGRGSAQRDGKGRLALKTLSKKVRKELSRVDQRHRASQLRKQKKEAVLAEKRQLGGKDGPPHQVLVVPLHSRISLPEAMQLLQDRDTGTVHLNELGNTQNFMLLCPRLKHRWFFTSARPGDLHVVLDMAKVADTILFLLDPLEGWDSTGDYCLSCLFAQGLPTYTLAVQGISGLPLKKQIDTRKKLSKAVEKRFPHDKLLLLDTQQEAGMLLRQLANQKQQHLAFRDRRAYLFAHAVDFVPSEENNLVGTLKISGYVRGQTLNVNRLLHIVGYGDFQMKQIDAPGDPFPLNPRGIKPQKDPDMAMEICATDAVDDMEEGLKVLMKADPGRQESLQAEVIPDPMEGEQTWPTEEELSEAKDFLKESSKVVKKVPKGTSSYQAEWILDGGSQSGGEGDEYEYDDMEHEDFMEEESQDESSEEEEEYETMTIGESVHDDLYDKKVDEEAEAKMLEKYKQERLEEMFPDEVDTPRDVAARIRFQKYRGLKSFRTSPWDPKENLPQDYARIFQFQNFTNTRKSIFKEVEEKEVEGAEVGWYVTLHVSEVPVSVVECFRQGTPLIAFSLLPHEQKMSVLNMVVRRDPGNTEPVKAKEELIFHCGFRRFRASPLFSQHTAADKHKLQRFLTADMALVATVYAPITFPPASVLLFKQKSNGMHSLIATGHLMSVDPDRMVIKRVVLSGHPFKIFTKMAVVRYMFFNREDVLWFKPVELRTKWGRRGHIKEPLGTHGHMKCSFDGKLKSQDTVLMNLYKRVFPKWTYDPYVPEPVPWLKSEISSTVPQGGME
# [3] = target: cysteines in MDA-MB-231 and Ramos cells (Homo sapiens, UniProt P27707)
# Chain of cysteines in MDA-MB-231 and Ramos cells (Homo sapiens, UniProt P27707) (P27707 whole entry): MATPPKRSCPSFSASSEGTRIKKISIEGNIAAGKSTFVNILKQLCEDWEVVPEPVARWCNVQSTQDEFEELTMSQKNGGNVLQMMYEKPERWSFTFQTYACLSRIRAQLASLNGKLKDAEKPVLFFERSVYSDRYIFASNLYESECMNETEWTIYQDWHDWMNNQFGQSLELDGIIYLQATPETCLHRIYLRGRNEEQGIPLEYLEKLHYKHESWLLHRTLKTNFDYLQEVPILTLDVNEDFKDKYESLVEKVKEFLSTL
# [4] = target: T3, cysteines in MDA-MB-231 and Ramos cells (Homo sapiens, UniProt Q86X76)
# T3 sequence (Q86X76 14-327): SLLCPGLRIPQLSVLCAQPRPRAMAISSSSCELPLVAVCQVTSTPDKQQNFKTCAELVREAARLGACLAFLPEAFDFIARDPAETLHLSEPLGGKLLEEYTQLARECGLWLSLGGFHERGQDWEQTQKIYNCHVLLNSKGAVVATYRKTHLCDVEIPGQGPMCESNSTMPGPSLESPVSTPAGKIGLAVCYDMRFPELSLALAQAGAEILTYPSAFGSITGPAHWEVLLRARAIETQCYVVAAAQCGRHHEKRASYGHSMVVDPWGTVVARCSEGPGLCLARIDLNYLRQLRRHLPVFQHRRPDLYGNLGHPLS
# [5] = target: T4, cysteines in MDA-MB-231 and Ramos cells (Homo sapiens, UniProt Q6ICB0)
# T4 sequence (Q6ICB0 1-168): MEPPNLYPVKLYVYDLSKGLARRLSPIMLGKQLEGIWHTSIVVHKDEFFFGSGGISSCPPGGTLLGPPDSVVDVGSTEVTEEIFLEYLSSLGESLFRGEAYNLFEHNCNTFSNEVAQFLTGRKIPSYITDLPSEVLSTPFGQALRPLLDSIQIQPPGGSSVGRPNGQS
# [6] = target: cysteines in MDA-MB-231 and Ramos cells (Homo sapiens, UniProt Q8WWI1)
# Chain of cysteines in MDA-MB-231 and Ramos cells (Homo sapiens, UniProt Q8WWI1) (Q8WWI1 whole entry): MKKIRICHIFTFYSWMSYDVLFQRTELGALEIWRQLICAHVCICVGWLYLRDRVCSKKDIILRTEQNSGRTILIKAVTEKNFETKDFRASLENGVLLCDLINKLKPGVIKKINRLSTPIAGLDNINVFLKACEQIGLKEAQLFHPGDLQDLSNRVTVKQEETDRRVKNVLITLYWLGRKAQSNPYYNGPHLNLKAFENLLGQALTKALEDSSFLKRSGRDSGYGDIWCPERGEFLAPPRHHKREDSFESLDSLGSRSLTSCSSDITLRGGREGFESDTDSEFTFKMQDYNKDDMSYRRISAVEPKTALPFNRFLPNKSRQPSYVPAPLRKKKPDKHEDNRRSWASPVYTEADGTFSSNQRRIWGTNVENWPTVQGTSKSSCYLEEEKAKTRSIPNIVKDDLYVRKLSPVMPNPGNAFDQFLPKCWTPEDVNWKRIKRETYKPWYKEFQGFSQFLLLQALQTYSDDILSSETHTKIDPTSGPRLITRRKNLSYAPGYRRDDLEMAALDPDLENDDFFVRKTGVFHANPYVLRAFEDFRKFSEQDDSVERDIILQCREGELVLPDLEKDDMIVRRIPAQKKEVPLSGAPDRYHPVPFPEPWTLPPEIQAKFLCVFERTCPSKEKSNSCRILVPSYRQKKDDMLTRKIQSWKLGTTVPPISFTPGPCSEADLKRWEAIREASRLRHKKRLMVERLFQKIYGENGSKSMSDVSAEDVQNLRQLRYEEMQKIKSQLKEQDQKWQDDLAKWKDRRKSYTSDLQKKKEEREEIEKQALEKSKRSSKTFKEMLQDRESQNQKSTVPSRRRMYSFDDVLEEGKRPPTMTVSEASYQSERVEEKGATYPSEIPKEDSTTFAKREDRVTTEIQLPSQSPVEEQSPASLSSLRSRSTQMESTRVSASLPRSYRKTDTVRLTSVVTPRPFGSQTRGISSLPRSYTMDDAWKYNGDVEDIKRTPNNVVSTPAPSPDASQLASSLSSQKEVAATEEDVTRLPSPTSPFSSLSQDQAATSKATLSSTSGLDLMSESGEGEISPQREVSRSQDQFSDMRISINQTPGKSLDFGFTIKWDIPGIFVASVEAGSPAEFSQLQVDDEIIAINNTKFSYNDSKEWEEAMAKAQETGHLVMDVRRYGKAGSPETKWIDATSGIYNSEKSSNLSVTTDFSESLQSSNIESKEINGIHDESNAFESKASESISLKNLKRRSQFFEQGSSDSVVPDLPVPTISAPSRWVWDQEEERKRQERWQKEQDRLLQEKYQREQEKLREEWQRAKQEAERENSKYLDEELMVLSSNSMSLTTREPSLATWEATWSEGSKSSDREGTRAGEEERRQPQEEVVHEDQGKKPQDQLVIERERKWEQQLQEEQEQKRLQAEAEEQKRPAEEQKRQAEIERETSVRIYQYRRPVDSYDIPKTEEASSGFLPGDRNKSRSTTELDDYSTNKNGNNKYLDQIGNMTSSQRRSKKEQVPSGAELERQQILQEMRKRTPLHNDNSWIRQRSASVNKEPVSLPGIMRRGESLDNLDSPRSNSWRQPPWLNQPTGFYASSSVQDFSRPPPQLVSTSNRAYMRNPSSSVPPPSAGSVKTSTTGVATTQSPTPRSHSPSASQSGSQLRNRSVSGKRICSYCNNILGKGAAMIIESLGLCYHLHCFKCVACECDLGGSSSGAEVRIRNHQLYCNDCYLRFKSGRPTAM
# [7] = target: cysteines in MDA-MB-231 and Ramos cells (Homo sapiens, UniProt Q14980); conditions: 200 μM, insitu, 231
# Chain of cysteines in MDA-MB-231 and Ramos cells (Homo sapiens, UniProt Q14980) (Q14980 whole entry): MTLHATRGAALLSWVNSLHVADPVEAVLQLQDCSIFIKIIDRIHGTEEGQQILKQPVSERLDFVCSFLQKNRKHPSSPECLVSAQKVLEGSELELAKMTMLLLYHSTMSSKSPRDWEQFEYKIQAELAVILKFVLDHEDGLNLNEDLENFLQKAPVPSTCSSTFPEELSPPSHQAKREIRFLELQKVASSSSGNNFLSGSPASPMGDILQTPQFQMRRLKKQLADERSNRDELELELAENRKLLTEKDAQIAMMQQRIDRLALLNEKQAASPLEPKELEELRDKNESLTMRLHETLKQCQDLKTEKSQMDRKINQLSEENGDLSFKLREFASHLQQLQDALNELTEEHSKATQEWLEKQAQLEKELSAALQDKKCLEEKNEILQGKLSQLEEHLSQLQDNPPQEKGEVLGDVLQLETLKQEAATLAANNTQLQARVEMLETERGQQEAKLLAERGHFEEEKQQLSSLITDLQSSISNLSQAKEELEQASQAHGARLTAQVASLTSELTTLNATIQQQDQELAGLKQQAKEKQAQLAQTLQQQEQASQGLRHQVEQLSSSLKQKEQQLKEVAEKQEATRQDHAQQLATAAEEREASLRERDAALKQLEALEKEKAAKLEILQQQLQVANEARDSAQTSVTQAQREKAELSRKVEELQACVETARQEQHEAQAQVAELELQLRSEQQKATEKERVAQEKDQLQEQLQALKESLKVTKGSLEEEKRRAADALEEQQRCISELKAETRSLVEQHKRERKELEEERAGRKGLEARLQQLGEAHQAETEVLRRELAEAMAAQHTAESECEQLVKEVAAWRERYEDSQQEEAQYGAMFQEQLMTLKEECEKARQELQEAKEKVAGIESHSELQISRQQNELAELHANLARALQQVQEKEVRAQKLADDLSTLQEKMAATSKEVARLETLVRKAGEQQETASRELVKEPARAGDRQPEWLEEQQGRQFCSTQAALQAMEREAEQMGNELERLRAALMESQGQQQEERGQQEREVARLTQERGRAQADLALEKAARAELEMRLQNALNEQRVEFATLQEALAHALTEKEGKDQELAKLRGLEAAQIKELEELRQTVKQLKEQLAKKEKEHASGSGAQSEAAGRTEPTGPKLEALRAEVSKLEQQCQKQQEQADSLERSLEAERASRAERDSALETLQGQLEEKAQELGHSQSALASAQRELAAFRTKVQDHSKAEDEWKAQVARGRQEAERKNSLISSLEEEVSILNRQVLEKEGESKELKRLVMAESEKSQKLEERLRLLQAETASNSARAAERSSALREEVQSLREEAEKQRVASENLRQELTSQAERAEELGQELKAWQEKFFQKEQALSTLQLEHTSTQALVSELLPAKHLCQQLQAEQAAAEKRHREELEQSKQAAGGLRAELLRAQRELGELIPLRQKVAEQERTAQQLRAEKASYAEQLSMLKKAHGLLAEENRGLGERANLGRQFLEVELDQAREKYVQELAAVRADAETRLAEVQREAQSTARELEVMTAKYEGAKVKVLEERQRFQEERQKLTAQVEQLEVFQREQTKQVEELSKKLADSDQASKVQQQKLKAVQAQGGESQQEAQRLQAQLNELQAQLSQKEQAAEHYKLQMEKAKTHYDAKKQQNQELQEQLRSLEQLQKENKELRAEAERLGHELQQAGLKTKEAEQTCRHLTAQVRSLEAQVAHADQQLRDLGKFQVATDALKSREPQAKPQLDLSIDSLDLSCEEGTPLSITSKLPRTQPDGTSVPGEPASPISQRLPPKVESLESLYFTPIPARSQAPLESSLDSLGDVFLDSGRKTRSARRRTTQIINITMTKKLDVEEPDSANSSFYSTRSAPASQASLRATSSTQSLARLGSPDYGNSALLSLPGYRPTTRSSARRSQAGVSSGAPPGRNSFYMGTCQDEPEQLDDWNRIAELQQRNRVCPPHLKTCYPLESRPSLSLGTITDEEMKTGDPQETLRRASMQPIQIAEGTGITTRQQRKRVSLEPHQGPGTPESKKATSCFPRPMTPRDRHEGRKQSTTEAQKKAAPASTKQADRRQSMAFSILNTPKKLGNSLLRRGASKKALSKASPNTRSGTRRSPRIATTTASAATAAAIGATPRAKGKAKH
# [8] = target: T5, cysteines in MDA-MB-231 and Ramos cells (Homo sapiens, UniProt O75439)
# T5 sequence (O75439 44-489): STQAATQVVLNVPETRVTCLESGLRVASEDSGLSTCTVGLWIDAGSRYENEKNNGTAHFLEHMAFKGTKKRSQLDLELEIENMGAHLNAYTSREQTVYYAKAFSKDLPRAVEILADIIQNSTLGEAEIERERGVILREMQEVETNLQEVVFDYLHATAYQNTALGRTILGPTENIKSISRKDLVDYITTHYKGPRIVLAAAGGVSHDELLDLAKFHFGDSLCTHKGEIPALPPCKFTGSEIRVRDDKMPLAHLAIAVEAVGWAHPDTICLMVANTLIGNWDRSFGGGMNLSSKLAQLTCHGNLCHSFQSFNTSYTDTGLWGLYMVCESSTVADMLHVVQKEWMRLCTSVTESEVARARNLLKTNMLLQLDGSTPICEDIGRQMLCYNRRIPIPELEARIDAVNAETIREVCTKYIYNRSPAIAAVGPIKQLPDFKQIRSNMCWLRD
compound,measurement,setting,value
COc1ccc(C2CC(c3cccs3)=NN2C(=O)CCl)cc1 (stereo not drawn) [compound 4],isoTOP-ABPP reactivity Q5T440_C170 IBA57,[1]; 100 μM in situ 231,1.5
same,isoTOP-ABPP reactivity Q2NL82_C126 TSR1,[2]; 100 μM in situ 231,13.8
same,isoTOP-ABPP reactivity P27707_C9 DCK,[3]; 100 μM in situ 231,1.4
same,isoTOP-ABPP reactivity Q86X76_C203 NIT1,[4]; 100 μM in situ 231,0.7
O=C(CCl)Nc1cccc2ncccc12 [compound 51],isoTOP-ABPP ratio Q2NL82_C126,"[2]; 200 μM, insitu, 231",1.9
same,isoTOP-ABPP ratio Q6ICB0_C108,"[5]; 200 μM, insitu, 231",1.1
CC1CCc2ccccc2N1C(=O)CCl (stereo not drawn) [compound 45],isoTOP-ABPP ratio Q5T440_C170,"[1]; 200 μM, insitu, 231",3.5
same,isoTOP-ABPP ratio Q2NL82_C126,"[2]; 200 μM, insitu, 231",20.0
same,isoTOP-ABPP ratio Q8WWI1_C228,"[6]; 200 μM, insitu, 231",20.0
same,isoTOP-ABPP ratio Q86X76_C203,"[4]; 200 μM, insitu, 231",20.0
same,isoTOP-ABPP ratio Q6ICB0_C108,"[5]; 200 μM, insitu, 231",3.1
O=C(CCl)NC(=O)NC12CC3CC(CC(C3)C1)C2 [compound 12],"isoTOP-ABPP ratio, cysteine Q2NL82_C126","[2]; 200 μM, insitu, 231",20.0
same,isoTOP-ABPP ratio P27707_C9,"[3]; 200 μM, insitu, 231",1.4
same,isoTOP-ABPP ratio Q8WWI1_C228,"[6]; 200 μM, insitu, 231",20.0
same,"isoTOP-ABPP ratio, cysteine Q86X76_C203","[4]; 200 μM, insitu, 231",3.9
same,"isoTOP-ABPP ratio, cysteine Q14980_C961",[7],20.0
O=C(CCl)N1CCN(S(=O)(=O)c2ccccc2F)CC1 [compound 10],isoTOP-ABPP ratio Q5T440_C170,"[1]; 200 μM, insitu, 231",5.7
same,"isoTOP-ABPP ratio, cysteine Q2NL82_C126","[2]; 200 μM, insitu, 231",4.9
same,isoTOP-ABPP ratio P27707_C9,"[3]; 200 μM, insitu, 231",1.9
same,isoTOP-ABPP ratio P27707_C9,"[3]; 200 μM, insitu, ramos",1.7
same,isoTOP-ABPP ratio Q8WWI1_C228,"[6]; 200 μM, insitu, 231",17.2
same,"isoTOP-ABPP ratio, cysteine O75439_C265","[8]; 200 μM, insitu, ramos",2.1
O=C(CCl)N1CCN(CC(=O)N2CCOCC2)CC1 [compound 29],isoTOP-ABPP ratio Q5T440_C170,"[1]; 200 μM, insitu, ramos",1.3
same,isoTOP-ABPP ratio P27707_C9,"[3]; 200 μM, insitu, ramos",1.2
same,isoTOP-ABPP ratio Q8WWI1_C228,"[6]; 200 μM, insitu, ramos",1.0
same,isoTOP-ABPP ratio Q6ICB0_C108,"[5]; 200 μM, insitu, ramos",1.0
CC(C)CCOCCNC(=O)CCl [compound 27],isoTOP-ABPP ratio Q2NL82_C126,"[2]; 200 μM, insitu, 231",0.4
same,isoTOP-ABPP ratio Q8WWI1_C228,"[6]; 200 μM, insitu, 231",0.8
same,isoTOP-ABPP ratio O75439_C265,"[8]; 200 μM, insitu, 231",1.6
same,isoTOP-ABPP ratio Q6ICB0_C108,"[5]; 200 μM, insitu, 231",1.9
same,isoTOP-ABPP ratio Q14980_C961,[7],2.4
O=C(CCl)N1CCC(Cc2ccccc2)CC1 [compound 9],isoTOP-ABPP reactivity P27707_C9 DCK,"[3]; 200 μM, insitu, 231",4.9
O=C(CCl)NC12CC3CC(CC(C3)C1)C2 [compound 21],isoTOP-ABPP ratio Q5T440_C170,"[1]; 200 μM, insitu, 231",1.6
same,"isoTOP-ABPP ratio, cysteine Q2NL82_C126","[2]; 200 μM, insitu, 231",1.5
same,isoTOP-ABPP ratio P27707_C9,"[3]; 200 μM, insitu, 231",1.3
same,isoTOP-ABPP ratio Q8WWI1_C228,"[6]; 200 μM, insitu, 231",1.1
same,"isoTOP-ABPP ratio, cysteine Q86X76_C203","[4]; 200 μM, insitu, 231",0.8
same,isoTOP-ABPP ratio Q6ICB0_C108,"[5]; 200 μM, insitu, 231",0.6
same,"isoTOP-ABPP ratio, cysteine Q14980_C961",[7],3.7
COc1ccc2c(c1)CCCN2C(=O)CCl [compound 2],isoTOP-ABPP reactivity Q5T440_C170 IBA57,"[1]; 200 μM, insitu, 231",14.0
same,isoTOP-ABPP reactivity Q2NL82_C126 TSR1,"[2]; 200 μM, insitu, 231",20.0
same,isoTOP-ABPP reactivity Q6ICB0_C108 DESII,"[5]; 200 μM, insitu, 231",20.0
Cn1cc(S(=O)(=O)N2CCOCC2)cc1C(=O)NC(=O)CCl [compound 11],isoTOP-ABPP ratio P27707_C9,[3]; 100 μM in situ 231,0.5
same,isoTOP-ABPP ratio Q8WWI1_C228,[6]; 100 μM in situ 231,1.3
same,"isoTOP-ABPP ratio, cysteine Q86X76_C203",[4]; 100 μM in situ 231,0.8
same,"isoTOP-ABPP ratio, cysteine O75439_C265",[8]; 100 μM in situ 231,1.0
same,isoTOP-ABPP ratio Q6ICB0_C108,[5]; 100 μM in situ 231,0.7
COc1ccccc1OCCNC(=O)CCl [compound 28],isoTOP-ABPP ratio O75439_C265,"[8]; 200 μM, insitu, 231",0.6
O=C(CCl)NCCc1c[nH]c2ccccc12 [compound 13],isoTOP-ABPP ratio Q5T440_C170,"[1]; 200 μM, insitu, 231",1.2
same,isoTOP-ABPP ratio P27707_C9,"[3]; 200 μM, insitu, 231",1.0
same,isoTOP-ABPP ratio P27707_C9,"[3]; 200 μM, insitu, ramos",1.3
same,isoTOP-ABPP ratio Q8WWI1_C228,"[6]; 200 μM, insitu, 231",2.0
same,isoTOP-ABPP ratio Q8WWI1_C228,"[6]; 200 μM, insitu, ramos",1.0
same,isoTOP-ABPP ratio Q6ICB0_C108,"[5]; 200 μM, insitu, ramos",4.0
same,"isoTOP-ABPP ratio, cysteine Q14980_C961",[7],2.2
Cc1ccc(C=C(C#N)C(=O)NCCN2CCOCC2)cc1 [compound 41],isoTOP-ABPP ratio Q5T440_C170,"[1]; 200 μM, insitu, 231",0.7
same,isoTOP-ABPP ratio Q2NL82_C126,"[2]; 200 μM, insitu, 231",0.8
same,isoTOP-ABPP ratio P27707_C9,"[3]; 200 μM, insitu, 231",0.4
same,isoTOP-ABPP ratio Q8WWI1_C228,"[6]; 200 μM, insitu, 231",0.8
same,isoTOP-ABPP ratio Q86X76_C203,"[4]; 200 μM, insitu, 231",1.3
same,isoTOP-ABPP ratio O75439_C265,"[8]; 200 μM, insitu, 231",1.3
C=CC(=O)Nc1cc(F)c(N2CCN(C(=O)OC(C)(C)C)CC2)c(F)c1 [compound 38],isoTOP-ABPP ratio Q2NL82_C126,"[2]; 200 μM, insitu, 231",0.9
same,isoTOP-ABPP ratio P27707_C9,"[3]; 200 μM, insitu, 231",1.8
same,isoTOP-ABPP ratio Q6ICB0_C108,"[5]; 200 μM, insitu, 231",1.1
same,isoTOP-ABPP ratio Q14980_C961,[7],2.6
C=CC(=O)N(Cc1cccnc1)c1cc(C(F)(F)F)cc(C(F)(F)F)c1 [compound 31],isoTOP-ABPP ratio P27707_C9,"[3]; 200 μM, insitu, ramos",1.2
same,isoTOP-ABPP ratio O75439_C265,"[8]; 200 μM, insitu, 231",1.0
same,isoTOP-ABPP ratio O75439_C265,"[8]; 200 μM, insitu, ramos",1.4
same,isoTOP-ABPP ratio Q6ICB0_C108,"[5]; 200 μM, insitu, 231",1.2
same,isoTOP-ABPP ratio Q6ICB0_C108,"[5]; 200 μM, insitu, ramos",1.3
same,isoTOP-ABPP ratio Q14980_C961,[7],1.1
COc1cc2c(cc1OC)CN(C(=O)CCl)CC2 [compound 8],isoTOP-ABPP reactivity Q6ICB0_C108 DESII,"[5]; 200 μM, insitu, 231",20.0
